Drawing on the supplement of paper PMC9265050, “Inhibition of RNA Binding in SND1 Increases the Levels of miR-1-3p and Sensitizes Cancer Cells to Navitoclax” (Cancers, 2022), this text covers drug sensitivity score for 40 compounds.

The test system of the assay is SW480. The assay is described as follows: drug sensitivity score (DSS, integrated dose-response area); higher = more sensitive (stronger viability reduction); extreme values may be limits of the assay. A digest of the protocol: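 SW480 cells stably carrying doxycycline-inducible control or SND1-targeting shRNA were treated with 0.1 µg/mL doxycycline for 7 days. Cells were then seeded at 1000 per well into 384-well plates containing 525 commercially available small-molecule inhibitors at five concentrations, and viability was measured with CellTiter-Glo after 72 h. The drug sensitivity score integrates the area under a fitted non-linear dose–response model.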

The mark [1] stands for this setting: shRNA: SND1 shRNA1 (SND1 silenced).
The mark [2] stands for this setting: shRNA: SND1 shRNA2 (SND1 silenced).
The mark [3] stands for this setting: shRNA: control shRNA (non-targeting).

On to `COc1ccccc1S(=O)(=O)Nc1ccc2c(c1)CN(C)C(=O)N2` [PFI-1], for which the drug sensitivity score by setting is: under setting [1], 1.8 DSS; under setting [2], 0.5 DSS; under setting [3], 0.4 DSS.

Consider `CN1CCN(c2cc(C(=O)Nc3ccc4c(c3)-c3c(c(C(N)=O)nn3-c3ccc(F)cc3)CC4)c(Cl)cn2)CC1` [PHA 408], for which the drug sensitivity score reads like this: under setting [1], 5.3 DSS; under setting [3], 5.2 DSS.

In the case of `CCn1nnc2c(N3CCOCC3)nc(-c3ccc(NC(=O)Nc4ccc(C(=O)N5CCN(C)CC5)cc4)cc3)nc21` [PKI-402], the drug sensitivity score amounted to 6 DSS under setting [1], 6.6 DSS under setting [2] and 8.2 DSS under setting [3].

`O=C(Nc1cc(Cl)cc2c1[nH]c1cnccc12)c1cccnc1` [PS-1145]: the drug sensitivity score came out at 0.4 DSS under setting [1], 0 DSS under setting [2] and 1.8 DSS under setting [3].

`COc1cc(Br)c(Nc2nc(-c3c(C)nc4ncccn34)cs2)c(Br)c1` [PTC-209]: the drug sensitivity score runs as follows: under setting [1], 6.7 DSS; under setting [2], 2.2 DSS; under setting [3], 7.1 DSS.

On to `CC(=O)O[C@H]1C(=O)[C@@]2(C)[C@H]([C@H](OC(=O)c3ccccc3)[C@]3(O)C[C@H](OC(=O)[C@H](O)[C@@H](NC(=O)c4ccccc4)c4ccccc4)C(C)=C1C3(C)C)[C@]1(OC(C)=O)CO[C@@H]1C[C@@H]2O` [Paclitaxel], for which the drug sensitivity score is, setting by setting: under setting [1], 11.5 DSS; under setting [2], 12.5 DSS; under setting [3], 14.1 DSS.

For `C1=N/C2=N/c3ccc(OCCN4CCCC4)c(c3)COC/C=C/COCc3cccc(c3)C(=C1)N2` [Pacritinib], the drug sensitivity score is, setting by setting: under setting [1], 9.6 DSS; under setting [3], 10 DSS.

For the compound `CC(=O)c1c(C)c2cnc(Nc3ccc(N4CCNCC4)cn3)nc2n(C2CCCC2)c1=O` [Palbociclib], the drug sensitivity score is, setting by setting: under setting [1], 10.6 DSS; under setting [2], 10.4 DSS; under setting [3], 6.6 DSS.

In the case of `COc1ccc(COc2cc3oc(=O)c4cc(C(C)O)ccc4c3cc2OC)cc1` (stereo not drawn) [Palomid-529], the drug sensitivity score is, setting by setting: under setting [1], 0 DSS; under setting [2], 0 DSS; under setting [3], 1.7 DSS.

Consider `Cc1[nH]c2ccccc2c1CCNCc1ccc(/C=C/C(=O)NO)cc1` [Panobinostat], for which the drug sensitivity score reads like this: under setting [1], 19.9 DSS; under setting [2], 19.2 DSS; under setting [3], 17.4 DSS.

On to `C/C(=C\c1csc(C)n1)[C@@H]1C[C@@H]2O[C@]2(C)CCC[C@H](C)[C@H](O)[C@@H](C)C(=O)C(C)(C)[C@@H](O)CC(=O)O1` [Patupilone], for which the drug sensitivity score stood at 17.9 DSS under setting [1], 18.3 DSS under setting [2] and 18.4 DSS under setting [3].

`Cc1ccc(Nc2nccc(N(C)c3ccc4c(C)n(C)nc4c3)n2)cc1S(N)(=O)=O` [Pazopanib] showed a drug sensitivity score under setting [1] of 0.5 DSS, a drug sensitivity score under setting [2] of 7.1 DSS and a drug sensitivity score under setting [3] of 1.8 DSS.

Regarding `CCOc1cc2ncc(C#N)c(Nc3ccc(F)c(Cl)c3)c2cc1NC(=O)/C=C/CN(C)C` [Pelitinib], the drug sensitivity score under setting [1] amounted to 7.8 DSS, the drug sensitivity score under setting [2] turned out to be 8.6 DSS and the drug sensitivity score under setting [3] came to 12.3 DSS.

With `Nc1nc2[nH]cc(CCc3ccc(C(=O)N[C@@H](CCC(=O)O)C(=O)O)cc3)c2c(=O)[nH]1` [Pemetrexed], the drug sensitivity score came out at 9.9 DSS under setting [1] and 6.5 DSS under setting [3].

`OC[C@H]1O[C@@H](n2cnc3c2N=CNC[C@H]3O)C[C@@H]1O` [Pentostatin] displayed a drug sensitivity score under setting [1] of 1.6 DSS, a drug sensitivity score under setting [2] of 3.5 DSS and a drug sensitivity score under setting [3] of 2.9 DSS.

`CCCCCCCCCCCCCCCCCCOP(=O)([O-])OC1CC[N+](C)(C)CC1` [Perifosine]: the drug sensitivity score was 2.3 DSS under setting [1] and 3.7 DSS under setting [3].

As to `NS(=O)(=O)OC[C@@H]1C[C@@H](n2ccc3c(N[C@H]4CCc5ccccc54)ncnc32)C[C@@H]1O` [Pevonedistat], the drug sensitivity score by setting is: under setting [1], 4.5 DSS; under setting [3], 8.2 DSS.

Turning to `FC(F)(F)c1ccc(CNc2ccc(Cc3c[nH]c4ncc(Cl)cc34)cn2)cn1` [Pexidartinib], the drug sensitivity score is, setting by setting: under setting [1], 0.3 DSS; under setting [2], 0.8 DSS; under setting [3], 0.7 DSS.

Regarding `COc1ccc(Cl)c(Nc2nc3ccccc3nc2NS(=O)(=O)c2cccc(NC(=O)C(C)(C)N)c2)c1` [Pilaralisib], the drug sensitivity score by setting is: under setting [1], 0.8 DSS; under setting [2], 0.7 DSS; under setting [3], 0.8 DSS.

With `CC[C@@H]1C(=O)OC[C@@H]1Cc1cncn1C` [Pilocarpine], the drug sensitivity score came to 0.6 DSS under setting [1], 0 DSS under setting [2] and 0.2 DSS under setting [3].

For the compound `O=C(NC[C@H](O)CO)c1ccncc1Nc1ccc(I)cc1F` [Pimasertib], the drug sensitivity score is, setting by setting: under setting [1], 26.3 DSS; under setting [2], 16.5 DSS; under setting [3], 7.4 DSS.

The compound `CC(C)N(C[C@H]1O[C@@H](n2cnc3c(N)ncnc32)[C@H](O)[C@@H]1O)[C@H]1C[C@@H](CCc2nc3cc(C(C)(C)C)ccc3[nH]2)C1` [Pinometostat] registered a drug sensitivity score under setting [1] of 0 DSS, a drug sensitivity score under setting [2] of 2.6 DSS and a drug sensitivity score under setting [3] of 0 DSS.

Turning to `O=C(CCBr)N1CCN(C(=O)CCBr)CC1` [Pipobroman], the drug sensitivity score runs as follows: under setting [1], 0.1 DSS; under setting [2], 1.5 DSS; under setting [3], 0.1 DSS.

Regarding `NCCNc1ccc(NCCN)c2c1C(=O)c1ccncc1C2=O` [Pixantrone], the drug sensitivity score runs as follows: under setting [1], 0 DSS; under setting [2], 0 DSS; under setting [3], 0 DSS.

In the case of `c1cc(CN2CCCNCCNCCCNCC2)ccc1CN1CCCNCCNCCCNCC1` [Plerixafor], the drug sensitivity score runs as follows: under setting [1], 0 DSS; under setting [3], 0 DSS.

For the compound `CO[C@H](C(=O)[C@@H](O)[C@@H](C)O)[C@@H]1Cc2cc3cc(O[C@H]4C[C@@H](O[C@@H]5C[C@@H](O)[C@H](O)[C@@H](C)O5)[C@H](O)[C@@H](C)O4)c(C)c(O)c3c(O)c2C(=O)[C@H]1O[C@H]1C[C@@H](O[C@@H]2C[C@@H](O)[C@@H](O[C@@H]3C[C@](C)(O)[C@H](O)[C@@H](C)O3)[C@@H](C)O2)[C@H](O)[C@@H](C)O1` [Plicamycin], the drug sensitivity score by setting is: under setting [1], 1.9 DSS; under setting [2], 0 DSS; under setting [3], 3.5 DSS.

Consider `Nc1cccc2c1C(=O)N(C1CCC(=O)NC1=O)C2=O` (stereo not drawn) [Pomalidomide], for which the drug sensitivity score is, setting by setting: under setting [1], 0 DSS; under setting [2], 0 DSS; under setting [3], 0 DSS.

On to `Cc1ccc(C(=O)Nc2ccc(CN3CCN(C)CC3)c(C(F)(F)F)c2)cc1C#Cc1cnc2cccnn12` [Ponatinib], for which the drug sensitivity score is, setting by setting: under setting [1], 5.9 DSS; under setting [2], 4.8 DSS; under setting [3], 4.4 DSS.

Consider `C=CC(=O)N1CCC(Oc2cc3c(Nc4ccc(Cl)c(Cl)c4F)ncnc3cc2OC)CC1` [Poziotinib], for which the drug sensitivity score was 0.6 DSS under setting [1], 4.1 DSS under setting [2] and 0.2 DSS under setting [3].

In the case of `CCCCc1nc2cc(/C=C/C(=O)NO)ccc2n1CCN(CC)CC` [Pracinostat], the drug sensitivity score by setting is: under setting [1], 21.1 DSS; under setting [2], 17.2 DSS; under setting [3], 19.3 DSS.

For `CC[C@H](C)C(=O)O[C@H]1C[C@H](O)C=C2C=C[C@H](C)[C@H](CC[C@@H](O)C[C@@H](O)CC(=O)O)[C@H]21` [Pravastatin], the drug sensitivity score was 0 DSS under setting [1] and 3.1 DSS under setting [3].

Consider `C[C@]12C=CC(=O)C=C1CC[C@@H]1[C@@H]2[C@@H](O)C[C@@]2(C)[C@H]1CC[C@]2(O)C(=O)CO` [Prednisolone], for which the drug sensitivity score worked out at 0 DSS under setting [1], 0 DSS under setting [2] and 0 DSS under setting [3].

Consider `C[C@]12C=CC(=O)C=C1CC[C@@H]1[C@@H]2C(=O)C[C@@]2(C)[C@H]1CC[C@]2(O)C(=O)CO` [Prednisone], for which the drug sensitivity score was determined as 0.5 DSS under setting [1], 0.1 DSS under setting [2] and 2.9 DSS under setting [3].

For `COc1cccc(OCCCN)c1-c1cc(Nc2cnc(C#N)cn2)n[nH]1` [Prexasertib], the drug sensitivity score was found to be 29.1 DSS under setting [1], 26.2 DSS under setting [2] and 28.1 DSS under setting [3].

In the case of `CNNCc1ccc(C(=O)NC(C)C)cc1` [Procarbazine], the drug sensitivity score under setting [1] was found to be 0 DSS, the drug sensitivity score under setting [2] was 0 DSS and the drug sensitivity score under setting [3] was 0 DSS.

For `Cc1cc(-c2ncc(-c3cccnc3)cc2/C=C/c2ccccc2)cnc1-c1cccnc1` [Pyridoclax], the drug sensitivity score reads like this: under setting [1], 4.1 DSS; under setting [2], 2.7 DSS; under setting [3], 0.2 DSS.

Turning to `Cn1cc(CNCC2CCN(c3ncc(C(=O)NO)cn3)CC2)c2ccccc21` [Quisinostat], the drug sensitivity score was 14.9 DSS under setting [1], 14.6 DSS under setting [2] and 13.6 DSS under setting [3].

As to `CC(C)(C)c1cc(NC(=O)Nc2ccc(-c3cn4c(n3)sc3cc(OCCN5CCOCC5)ccc34)cc2)no1` [Quizartinib], the drug sensitivity score by setting is: under setting [1], 0 DSS; under setting [2], 0 DSS; under setting [3], 0 DSS.

Turning to `Cn1c(Nc2ccc(C(F)(F)F)cc2)nc2cc(Oc3ccnc(-c4ncc(C(F)(F)F)[nH]4)c3)ccc21` [RAF265], the drug sensitivity score under setting [1] came to 0 DSS, the drug sensitivity score under setting [2] came out at 1.8 DSS and the drug sensitivity score under setting [3] amounted to 2 DSS.

In the case of `CNC(=O)c1ccc(N2C(=S)N(c3ccc(C#N)c(C(F)(F)F)c3)C(=O)C23CCC3)cc1F` [RD162], the drug sensitivity score was 0.3 DSS under setting [1], 2.7 DSS under setting [2] and 0.8 DSS under setting [3].
